Laboratory results reported in ChEMBL document CHEMBL3885881, “DrugMatrix”.

Organism: Rattus norvegicus
Experiment: DrugMatrix - Regimen: Daily Repeat
Assay type: toxicity, organism-based, Sprague-Dawley
Set-up: regimen Daily Repeat, gender Male, age 6-8 weeks
Conditions: in vivo, po, route oral GAVAGE, vehicle 100 % WATER; for ABSOLUTE BASOPHIL / ABSOLUTE EOSINOPHIL / ABSOLUTE LYMPHOCYTE / ABSOLUTE MONOCYTE / ABSOLUTE SEGMENTED NEUTROPHIL / BASOPHIL / EOSINOPHIL / ERYTHROCYTE COUNT / HEMATOCRIT / HEMOGLOBIN / LEUKOCYTE COUNT / LYMPHOCYTE / MEAN CORPUSCULAR HEMOGLOBIN / MEAN CORPUSCULAR HEMOGLOBIN CONCENTRATION / MEAN CORPUSCULAR VOLUME / MONOCYTE / NEUTROPHIL / NUCLEATED RED BLOOD CELLS / PLATELET COUNT: tissue Blood; for ALANINE AMINOTRANSFERASE / ALBUMIN / ALKALINE PHOSPHATASE / ASPARTATE AMINOTRANSFERASE / BLOOD UREA NITROGEN / CARBON DIOXIDE / CHLORIDE / CHOLESTEROL / CREATINE PHOSPHOKINASE / CREATININE / GLUCOSE / LIPASE / PHOSPHORUS / POTASSIUM / SODIUM / TOTAL BILIRUBIN / TOTAL PROTEIN / URIC ACID: tissue Plasma
[1] = 175 mg/kg, 120 h, dose level High, time 5 day
[2] = […], 72 h, dose 5.7 mg/Kg, dose level Low, time 3 day
[3] = […], 120 h, dose 5.7 mg/Kg, dose level Low, time 5 day

CC(C)NCC(O)COc1cccc2ccccc12 (stereo unspecified) [PROPRANOLOL]
ABSOLUTE BASOPHIL [1]: 0 CELLS/uL
ABSOLUTE EOSINOPHIL [1]: 0 CELLS/uL
ABSOLUTE LYMPHOCYTE [1]: 13526.33 CELLS/uL
ABSOLUTE MONOCYTE [1]: 232.67 CELLS/uL
ABSOLUTE SEGMENTED NEUTROPHIL [1]: 741 CELLS/uL
BASOPHIL [1]: 0%
EOSINOPHIL [1]: 0%
ERYTHROCYTE COUNT [1]: 5.28 x10E6/uL
HEMATOCRIT [1]: 34.3%
HEMOGLOBIN [1]: 13.2 G/DL
LEUKOCYTE COUNT [1]: 14.5 x10E3/uL
LYMPHOCYTE [1]: 93.33%
MEAN CORPUSCULAR HEMOGLOBIN [1]: 25 pg
MEAN CORPUSCULAR HEMOGLOBIN CONCENTRATION [1]: 38.5 G/DL
MEAN CORPUSCULAR VOLUME [1]: 65 fL
MONOCYTE [1]: 1.67%
NEUTROPHIL [1]: 5%
NUCLEATED RED BLOOD CELLS [1]: 0 /100WBC
PLATELET COUNT [1]: 1299 x10E3/uL
ALANINE AMINOTRANSFERASE [1]: 57.33 u/L
ALBUMIN [1]: 3.97 G/DL
ALKALINE PHOSPHATASE [1]: 397.33 u/L
ASPARTATE AMINOTRANSFERASE [1]: 73.67 u/L
BLOOD UREA NITROGEN [1]: 17 mg/dL
CARBON DIOXIDE [1]: 29 mmol/L
CHLORIDE [1]: 101 MEQ/L
CHOLESTEROL [1]: 78.67 mg/dL
CREATINE PHOSPHOKINASE [1]: 314.67 u/L
CREATININE [1]: 0.18 mg/dL
GLUCOSE [1]: 149 mg/dL
LIPASE [1]: 10 u/L
PHOSPHORUS [1]: 13.43 mg/dL
POTASSIUM [1]: 6.7 MEQ/L
SODIUM [1]: 144.77 MEQ/L
TOTAL BILIRUBIN [1]: 0.2 mg/dL
TOTAL PROTEIN [1]: 5.6 G/DL
URIC ACID [1]: 1.33 mg/dL
ABSOLUTE BASOPHIL [2]: 0 CELLS/uL
ABSOLUTE EOSINOPHIL [2]: 0 CELLS/uL
ABSOLUTE LYMPHOCYTE [2]: 11391.33 CELLS/uL
ABSOLUTE MONOCYTE [2]: 180.33 CELLS/uL
ABSOLUTE SEGMENTED NEUTROPHIL [2]: 2228.33 CELLS/uL
BASOPHIL [2]: 0%
EOSINOPHIL [2]: 0%
ERYTHROCYTE COUNT [2]: 5.65 x10E6/uL
HEMATOCRIT [2]: 35.6%
HEMOGLOBIN [2]: 13.2 G/DL
LEUKOCYTE COUNT [2]: 13.8 x10E3/uL
LYMPHOCYTE [2]: 82.33%
MEAN CORPUSCULAR HEMOGLOBIN [2]: 23.37 pg
MEAN CORPUSCULAR HEMOGLOBIN CONCENTRATION [2]: 37.07 G/DL
MEAN CORPUSCULAR VOLUME [2]: 62.97 fL
MONOCYTE [2]: 1.33%
NEUTROPHIL [2]: 16.33%
NUCLEATED RED BLOOD CELLS [2]: 0.33 /100WBC
PLATELET COUNT [2]: 1291 x10E3/uL
ALANINE AMINOTRANSFERASE [2]: 52.67 u/L
ALBUMIN [2]: 4.07 G/DL
ALKALINE PHOSPHATASE [2]: 368.67 u/L
ASPARTATE AMINOTRANSFERASE [2]: 80 u/L
BLOOD UREA NITROGEN [2]: 14 mg/dL
CARBON DIOXIDE [2]: 27.67 mmol/L
CHLORIDE [2]: 102.67 MEQ/L
CHOLESTEROL [2]: 83 mg/dL
CREATINE PHOSPHOKINASE [2]: 155.33 u/L
CREATININE [2]: 0.26 mg/dL
GLUCOSE [2]: 153.33 mg/dL
LIPASE [2]: 11.33 u/L
PHOSPHORUS [2]: 13.73 mg/dL
POTASSIUM [2]: 6.83 MEQ/L
SODIUM [2]: 146 MEQ/L
TOTAL BILIRUBIN [2]: 0.2 mg/dL
TOTAL PROTEIN [2]: 5.83 G/DL
URIC ACID [2]: 1.7 mg/dL
ABSOLUTE BASOPHIL [3]: 0 CELLS/uL
ABSOLUTE EOSINOPHIL [3]: 0 CELLS/uL
ABSOLUTE LYMPHOCYTE [3]: 12645 CELLS/uL
ABSOLUTE MONOCYTE [3]: 541.67 CELLS/uL
ABSOLUTE SEGMENTED NEUTROPHIL [3]: 1413.33 CELLS/uL
BASOPHIL [3]: 0%
EOSINOPHIL [3]: 0%
ERYTHROCYTE COUNT [3]: 5.27 x10E6/uL
HEMATOCRIT [3]: 34.07%
HEMOGLOBIN [3]: 12.83 G/DL
LEUKOCYTE COUNT [3]: 14.6 x10E3/uL
LYMPHOCYTE [3]: 87%
MEAN CORPUSCULAR HEMOGLOBIN [3]: 24.37 pg
MEAN CORPUSCULAR HEMOGLOBIN CONCENTRATION [3]: 37.77 G/DL
MEAN CORPUSCULAR VOLUME [3]: 64.5 fL
MONOCYTE [3]: 3.67%
NEUTROPHIL [3]: 9.33%
NUCLEATED RED BLOOD CELLS [3]: 0.33 /100WBC
PLATELET COUNT [3]: 1063 x10E3/uL
ALANINE AMINOTRANSFERASE [3]: 45.33 u/L
ALBUMIN [3]: 4.27 G/DL
ALKALINE PHOSPHATASE [3]: 387.67 u/L
ASPARTATE AMINOTRANSFERASE [3]: 114 u/L
BLOOD UREA NITROGEN [3]: 22.33 mg/dL
CARBON DIOXIDE [3]: 21.67 mmol/L
CHLORIDE [3]: 99.67 MEQ/L
CHOLESTEROL [3]: 67.33 mg/dL
CREATINE PHOSPHOKINASE [3]: 1341.67 u/L
CREATININE [3]: 0.51 mg/dL
GLUCOSE [3]: 217 mg/dL
LIPASE [3]: 11.67 u/L
PHOSPHORUS [3]: 14.5 mg/dL
POTASSIUM [3]: 7.21 MEQ/L
SODIUM [3]: 143.73 MEQ/L
TOTAL BILIRUBIN [3]: 0.17 mg/dL
TOTAL PROTEIN [3]: 6.07 G/DL
URIC ACID [3]: 2.67 mg/dL
